Measured values taken from patent US4935440A, “3-[ω-(3,5-Di-t-butyl-4-hydroxyphenyl)alkyl]pyrroles, and anti-inflammatory uses thereof” (Syntex (U.S.A.) Inc., priority 1989, dated 1990).
Values joined by “and” are separate entries in the source; they are usually repeats but may differ in a detail not shown here. Identical values can stand only once.

Assays:
[1] = system: Female Hla:(SD) BR rats; assay: Adjuvant-Induced Arthritis Assay "AI"; assay type: in vivo, rat; conditions: oral, day 18, vs control animals
Description: Anti-inflammatory activity is determined by the Adjuvant-Induced Arthritis ("AI") Assay, as is well accepted in the art. A modification of the assay described by Pearson, et al., supra., is performed as follows:
Female Hla:(SD) BR rats weighting 160-180 g are randomly distributed to treatment groups of 12 animals, and given food and water ad libitum. Test materials are prepared fresh weekly as suspensions in carboxymethyl cellulose. The test animals are orally dosed with the suspensions in volumes of 1 ml twice per day Monday through Friday, and with 2 ml once per day on Saturdays and Sundays. […] At time 0, rats are injected intradermally in the proximal quarter of the tail with 0.1 ml of a mineral oil suspension of heat-killed Mycobacterium butyricum (Difco) at a concentration of 10 mg/ml. On day 18 the intensity of swelling in the four paws and tail is estimated visually and scored (0-4 for paws, 0-3 for tail) such that the total maximum score, indicating intense swelling of all four paws and tail, is 19. The animals are then sacrificed; the hind paws of each animal are removed and weighed. The percent inhibition is calculated by comparing the weight increase of the hind paws of the test animals versus the control animals.
The "AI" assay, as described in Example 29, was performed using 3-(3,5-di-t-butyl-4-hydroxybenzoyl)pyrrole (prepared according to Example 2) as the test material.

[2] = system: mice; assay: Arachidonic Acid-Induced Mouse Ear Edema Assay "AAI"; assay type: in vivo; conditions: topical in acetone
Description: Topical anti-inflammatory activity is determined by the Arachidonic Acid-Induced Mouse Ear Edema "AAI" Assay, as is well accepted in the art. A modification of the assay described by Young, et al., supra., is performed as follows:
The test materials are prepared as solutions in acetone and applied to the right ears of mice, in groups of eight (8), at hour 0. At hour 1, 2 mg of arachidonic acid in acetone solution is applied to the right ears of the mice to induce an inflammatory response. The left ears of these animals serves as negative controls. At hour 2 the mice are sacrificed; their ears are removed and 8 mm diameter full thickness plugs are cut from the tip of each ear. The plugs are weighed and the mean right and left plug weights are calculated for each group. The results are expressed as percent inhibition of ear plug weight increase relative to a positive control group receiving only acetone at hour 0.

[3] = as reported by Isomura, et al., Chem. Pharm. Bull., 32(1): 152-165 (1984); cited from earlier work

Row | Compound | inhibition of hind paw weight increase ([1]; daily dose 0.4 mg/kg of body weight) [%] | inhibition of hind paw weight increase ([1]; daily dose 2.0 mg/kg of body weight) [%] | Inhibition (AAI) of ear plug weight increase ([2]; dose 0.5 mg/ear) [%] | Inhibition (AAI) of ear plug weight increase ([2]; dose 1.0 mg/ear) [%] | Inhibition (AAI) of ear plug weight increase ([2]; dose 2.0 mg/ear) | anti-inflammatory activity [3]
1 | CC(C)(C)c1cc(C(=O)c2cc[nH]c2)cc(C(C)(C)C)c1O [A, 3-(3,5-di-t-butyl-4-hydroxybenzoyl)pyrrole] | 54 | 70 | 49 | 62 | 67% and 69% | –
2 | CC(C)(C)c1cc(C(=O)c2ccc[nH]2)cc(C(C)(C)C)c1O [B, 2-(3,5-di-t-butyl-4-hydroxybenzoyl)pyrrole, reference compound] | – | – | – | – | 22% | –
3 | Cc1[nH]ccc1-c1cc(C(C)(C)C)c(O)c(C(C)(C)C)c1 [Formula VIII] | – | – | – | – | – | inactive
